The NIST ThermoML archive (doi:10.1021/acs.jced.7b00773)

Details: Liquid; for viscosity: Concentric cylinders viscometry

CCCCCCn1cc[n+](C)c1.N#C[B-](C#N)(C#N)C#N [1-hexyl-3-methylimidazolium tetracyanoborate]
100 kPa
Details	viscosity [mPa·s]
293.15 K	63.69
303.15 K	38.1
313.15 K	24.73
323.15 K	17.12
333.15 K	12.48
343.15 K	9.467
353.15 K	7.423
363.15 K	5.982
373.15 K	4.929

Details	mass density [kg/m3]
293.15 K, 100 kPa, Vibrating tube method	994.4
303.15 K, 100 kPa, Vibrating tube method	987.3
311.8 K, 10000 kPa, Bellows volumetry	986.2
311.8 K, 20000 kPa, Bellows volumetry	991.5
311.8 K, 30000 kPa, Bellows volumetry	996.5
311.8 K, 40000 kPa, Bellows volumetry	1001.3
311.8 K, 50000 kPa, Bellows volumetry	1005.9
311.8 K, 60000 kPa, Bellows volumetry	1010.3
311.8 K, 70000 kPa, Bellows volumetry	1014.5
311.8 K, 80000 kPa, Bellows volumetry	1018.6
311.8 K, 90000 kPa, Bellows volumetry	1022.6
311.8 K, 100000 kPa, Bellows volumetry	1026.5
311.8 K, 110000 kPa, Bellows volumetry	1030.2
311.8 K, 120000 kPa, Bellows volumetry	1034
311.8 K, 130000 kPa, Bellows volumetry	1037.6
311.8 K, 140000 kPa, Bellows volumetry	1041.1
311.8 K, 150000 kPa, Bellows volumetry	1044.6
311.8 K, 160000 kPa, Bellows volumetry	1047.9
311.8 K, 170000 kPa, Bellows volumetry	1051.2
311.8 K, 180000 kPa, Bellows volumetry	1054.4
311.8 K, 190000 kPa, Bellows volumetry	1057.6
311.8 K, 200000 kPa, Bellows volumetry	1060.7
313.15 K, 100 kPa, Vibrating tube method	980.1
323.15 K, 100 kPa, Vibrating tube method	973
331.8 K, 10000 kPa, Bellows volumetry	972.5
331.8 K, 20000 kPa, Bellows volumetry	978.1
331.8 K, 30000 kPa, Bellows volumetry	983.3
331.8 K, 40000 kPa, Bellows volumetry	988.5
331.8 K, 50000 kPa, Bellows volumetry	993.3
331.8 K, 60000 kPa, Bellows volumetry	998
331.8 K, 70000 kPa, Bellows volumetry	1002.3
331.8 K, 80000 kPa, Bellows volumetry	1006.7
331.8 K, 90000 kPa, Bellows volumetry	1010.8
331.8 K, 100000 kPa, Bellows volumetry	1014.9
331.8 K, 110000 kPa, Bellows volumetry	1018.8
331.8 K, 120000 kPa, Bellows volumetry	1022.6
331.8 K, 130000 kPa, Bellows volumetry	1026.4
331.8 K, 140000 kPa, Bellows volumetry	1030
331.8 K, 150000 kPa, Bellows volumetry	1033.5
331.8 K, 160000 kPa, Bellows volumetry	1037
331.8 K, 170000 kPa, Bellows volumetry	1040.4
331.8 K, 180000 kPa, Bellows volumetry	1043.7
331.8 K, 190000 kPa, Bellows volumetry	1047
331.8 K, 200000 kPa, Bellows volumetry	1050.2
333.15 K, 100 kPa, Vibrating tube method	966
343.15 K, 100 kPa, Vibrating tube method	959.1
351.6 K, 10000 kPa, Bellows volumetry	959.1
351.6 K, 20000 kPa, Bellows volumetry	965.1
351.6 K, 30000 kPa, Bellows volumetry	970.6
351.6 K, 40000 kPa, Bellows volumetry	976
351.6 K, 50000 kPa, Bellows volumetry	981
351.6 K, 60000 kPa, Bellows volumetry	985.9
351.6 K, 70000 kPa, Bellows volumetry	990.5
351.6 K, 80000 kPa, Bellows volumetry	995.1
351.6 K, 90000 kPa, Bellows volumetry	999.4
351.6 K, 100000 kPa, Bellows volumetry	1003.6
351.6 K, 110000 kPa, Bellows volumetry	1007.6
351.6 K, 120000 kPa, Bellows volumetry	1011.5
351.6 K, 130000 kPa, Bellows volumetry	1015.4
351.6 K, 140000 kPa, Bellows volumetry	1019.2
351.6 K, 150000 kPa, Bellows volumetry	1022.9
351.6 K, 160000 kPa, Bellows volumetry	1026.4
351.6 K, 170000 kPa, Bellows volumetry	1029.9
351.6 K, 180000 kPa, Bellows volumetry	1033.3
351.6 K, 190000 kPa, Bellows volumetry	1036.7
351.6 K, 200000 kPa, Bellows volumetry	1040
353.15 K, 100 kPa, Vibrating tube method	952.2
363.15 K, 100 kPa, Vibrating tube method	945.4
371.8 K, 10000 kPa, Bellows volumetry	945.8
371.8 K, 20000 kPa, Bellows volumetry	952
371.8 K, 30000 kPa, Bellows volumetry	957.9
371.8 K, 40000 kPa, Bellows volumetry	963.6
371.8 K, 50000 kPa, Bellows volumetry	969
371.8 K, 60000 kPa, Bellows volumetry	974
371.8 K, 70000 kPa, Bellows volumetry	978.8
371.8 K, 80000 kPa, Bellows volumetry	983.6
371.8 K, 90000 kPa, Bellows volumetry	988.1
371.8 K, 100000 kPa, Bellows volumetry	992.4
371.8 K, 110000 kPa, Bellows volumetry	996.7
371.8 K, 120000 kPa, Bellows volumetry	1000.8
371.8 K, 130000 kPa, Bellows volumetry	1004.8
371.8 K, 140000 kPa, Bellows volumetry	1008.7
371.8 K, 150000 kPa, Bellows volumetry	1012.5
371.8 K, 160000 kPa, Bellows volumetry	1016.1
371.8 K, 170000 kPa, Bellows volumetry	1019.7
371.8 K, 180000 kPa, Bellows volumetry	1023.3
371.8 K, 190000 kPa, Bellows volumetry	1026.7
371.8 K, 200000 kPa, Bellows volumetry	1030.1
373.15 K, 100 kPa, Vibrating tube method	938.7
392 K, 10000 kPa, Bellows volumetry	932.8
392 K, 20000 kPa, Bellows volumetry	939.4
392 K, 30000 kPa, Bellows volumetry	945.7
392 K, 40000 kPa, Bellows volumetry	951.6
392 K, 50000 kPa, Bellows volumetry	957.2
392 K, 60000 kPa, Bellows volumetry	962.5
392 K, 70000 kPa, Bellows volumetry	967.6
392 K, 80000 kPa, Bellows volumetry	972.6
392 K, 90000 kPa, Bellows volumetry	977.3
392 K, 100000 kPa, Bellows volumetry	981.8
392 K, 110000 kPa, Bellows volumetry	986.3
392 K, 120000 kPa, Bellows volumetry	990.5
392 K, 130000 kPa, Bellows volumetry	994.6
392 K, 140000 kPa, Bellows volumetry	998.6
392 K, 150000 kPa, Bellows volumetry	1002.5
392 K, 160000 kPa, Bellows volumetry	1006.3
392 K, 170000 kPa, Bellows volumetry	1010
392 K, 180000 kPa, Bellows volumetry	1013.6
392 K, 190000 kPa, Bellows volumetry	1017.2
392 K, 200000 kPa, Bellows volumetry	1020.6
412.1 K, 10000 kPa, Bellows volumetry	920.1
412.1 K, 20000 kPa, Bellows volumetry	927
412.1 K, 30000 kPa, Bellows volumetry	933.7
412.1 K, 40000 kPa, Bellows volumetry	939.9
412.1 K, 50000 kPa, Bellows volumetry	945.8
412.1 K, 60000 kPa, Bellows volumetry	951.4
412.1 K, 70000 kPa, Bellows volumetry	956.7
412.1 K, 80000 kPa, Bellows volumetry	961.8
412.1 K, 90000 kPa, Bellows volumetry	966.8
412.1 K, 100000 kPa, Bellows volumetry	971.4
412.1 K, 110000 kPa, Bellows volumetry	976
412.1 K, 120000 kPa, Bellows volumetry	980.4
412.1 K, 130000 kPa, Bellows volumetry	984.7
412.1 K, 140000 kPa, Bellows volumetry	988.8
412.1 K, 150000 kPa, Bellows volumetry	992.8
412.1 K, 160000 kPa, Bellows volumetry	996.7
412.1 K, 170000 kPa, Bellows volumetry	1000.6
412.1 K, 180000 kPa, Bellows volumetry	1004.3
412.1 K, 190000 kPa, Bellows volumetry	1007.9
412.1 K, 200000 kPa, Bellows volumetry	1011.5
